Experiments:
PGC-1α promoter = PGC-1α promoter luciferase assay (compound screening) in SH-PGC-1α-Luc reporter cells; assay type: cell-based, human; conditions: SH-PGC-1α-Luc cells, comparison of 14 drugs
Description: In order to prepare lentiviruses for preparation of stable reporter SH-SY5Y cells (SH-PGC-1α-Luc), 1-kb pGL3-PGC-1α promoter-luciferase was cloned to pGreenFire (System Biosciences), and a lentivirus construct was first prepared (provided by Akyosi Fukamizu from University of Tsukuba, Japan).
HEK293T cells cultured in 15 cm dish were subjected to transfection with 32 μg of pGreenFire vector, 9 μg of VSVg envelope, 6.25 μg of Prev, and 12.5 μg of pMDL.
After 48 hours, viral supernatants were collected and concentrated using ultracentrifugation, and viral pellets were dissolved with PBS. SH-SY5Y cells were treated with concentrated virus and screened with puromycin (1 μg/ml) a day later.
SH-PGC-1α-Luc was dispensed in a white, flat-bottomed 96-well plate, where culture was performed to accommodate 10,000 cells in 100 μl of DMEM (10% FBS+penicillin/streptomycin (P/S)) per well, and the cells were stabilized in an incubator at 37° C. in the presence of 5% CO2 for 12 hours.
The next day, each drug was added to 50 μl of warmed DMEM to the final concentration of 20 μM, then 50 μl of DMEM was removed from the cell-containing plate, and 50 μl of drug-containing DMEM was added (final concentration of 10 μM). Cells were then exposed to the drug for 48 hours, and luciferase activity was measured using SteadyGlo reagent (Promega). […]

[1] = system: PGC-1α protein in SH-SY5Y cells; assay: Immunoblot of PGC-1α protein after treating SH-SY5Y cell line with compounds; assay type: cell-based, human; conditions: SH-SY5Y cell line, 0.01, 0.1, 1, 10 μM, 48 hours
Description: To culture human neuroblasts SH-SY5Y cells (ATCC, Manassas, VA), 10% FBS (vol/vol, Welgene Gold Serum, cat #S 001-07) and DMEM (Welgene fresh media DMEM, cat #LM 001-05) including antibiotics were used, wherein the culture was performed in an incubator (Forma Direct Heat CO2 incubator, Thermo Scientific) at 37° C. in the presence of 5% carbon dioxide.
(§1) RIPA buffer was added to the SH-SY5Y cells and SN of C57L/6N mice, followed by homogenization with a homogenizer. Thereafter, the freezing and melting process was repeated three times, and quantification was performed using a BCA kit based on BSA to check the total amount of protein.
(§2) Lysates were identified by adding 2× SDS sample buffer, heating at 95° C. for 10 minutes to perform immunoblot, and then treating the desired protein with antibody.
(§3) In the immunoblot experiment, the darkness of the band was measured using the ImageJ (NIH, Bethesda, […], USA, http://rsb.info.nih.gov/ij/) program, and statistical analysis was performed using the darkness of the protein band in proportion to the loading control. The statistical analysis was performed using the GraphPad Prism version 7 (GraphPad Software) program. For the data, the unpaired two-tailed student's t-test was applied, wherein p<of 0.05 indicates statistical significance.
As shown in Example 3, an image of an immunoblot performed after treating the SH-SY5Y cell line with compounds (10 μM, 48 hours) is shown in FIG. 6.

[2] = system: PGC-1α and main target genes (NRF-1, Tfam); assay: RT-qPCR of PGC-1α and its target genes (NRF-1, Tfam) in Parkinson's disease model mice; assay type: in vivo; conditions: substantia nigra of AAV-PARIS injected mice, diet for 4 weeks
Description: (§4) To prepare Parkinson's disease model mice, AAV-PARIS was stereotaxically injected into the substantia nigra area. The mice were fed with Chow or YPD-01 (2-(4-(1-hydroxypropan-2-yl)phenyl) isoindoline-1-one) diet (0.5% w/w) for 4 weeks, and then the brain was collected and sectioned using a microtome. Dopaminergic neurons were visualized by carrying out a reaction in the mouse brain tissue sliced into 35 μm sections using TH antibody, a neuronal dopamine marker, then exposed to Vectastine ABC (Vector biolabs) and DAB (Sigma) solutions. Six […] were used in each experiment.
In the animal model experiment set up as in Example 5, whether the expression of PGC-1α and the main target genes (NRF-1, Tfam) of PGC-1α increases due to YPD-01 intake was measured by RT-qPCR method.
The midbrain of mice into which AAV-PARIS was stereotaxically injected and which were fed with Chow or YPD-01 diet for 4 weeks was collected, and RNA was extracted using the total RNA extraction kit (Intron Biotechnology). cDNA was synthesized using the cDNA synthesis kit (Enzynomics) and oligo dT from the extracted RNA. Using primers and SYBR green (Qiagen) reagents for the gene to be analyzed, gene expression in Rotor gene Q (Qiagen) was quantified via qPCR.

[3] = system: Parkinson's disease model mice; assay: Pole test in AAV-PARIS Parkinson's disease model mice; assay type: in vivo; conditions: AAV-PARIS injected mice, YPD-01 diet 0.5% w/w
Description: as §4
In order to identify whether YPD-01 is effective in inhibiting the death of dopamine neurons and Parkinson's disease-like behavioral abnormality in the Parkinson's disease model, as shown in Example 5 above, a pole test, which is the most reliable behavioral experiment, was performed.
To investigate behavioral abnormality, Parkinson's disease model mice were transferred to a pole test cage to have the mice adapted for 3 minutes, and then the mouse tails were held and placed on the tip of a vertically erected pole. The time from the moment the mouse took off its hind foot from the tip of the pole until the mouse came down to the floor was measured.

[4] = system: PGC-1α protein in the SN of mice; assay: Immunoblot of PGC-1α protein in the substantia nigra (SN) of mice fed compound diet; assay type: in vivo; conditions: diet 0.5% w/w for 1 week
Description: as §1, §2, §3
In FIG. 7, an immunoblot is shown for protein derived from the SN of mice fed with Chow, YPD-02 (2-[4-(3-oxo-1H-isoindol-2-yl)phenyl]propanoic acid), or YPD-01 (2-(4-(1-hydroxypropan-2-yl)phenyl) isoindoline-1-one) diet (0.5% w/w) for 1 week (quantitative graph quantified with β-actin/data was expressed as mean±SEM/statistical significance was measured by applying the unpaired two-tailed student t-test. * p<0.05, ** p<0.01.).

[5] = system: dopamine neurons in substantia nigra of AAV-PARIS Parkinson's disease model mice; assay: Death of dopamine neurons in AAV-PARIS Parkinson's disease model mice (TH immunohistochemistry and immunoblot); assay type: in vivo; conditions: AAV-PARIS injected mice, diet 0.5% w/w for 4 weeks
Description: as §4
100 μl of pentobarbital (10 mg/ml) was injected into the abdomen of 8-week-old mice for anesthetization, mouse pericranium was peeled off, and then the left brain (X: 1.2, Y: −3.2, Z: −4.5) and right brain (X: 1.2, Y: 3.2, Z: −4.5) regions were marked based on the bregma. The marked portion was drilled, and the virus was injected slowly (30 seconds per 0.2 μl) through a syringe. After injecting the virus into the left brain, followed by a 2-minute standby, the same procedure was performed on the other side. After the surgical suture, the mice were carefully monitored, and breeding was followed in the cage until the recovery. […]

| Compound | activity on PGC-1α promoter among the 14 drugs (FIG. 5) (PGC-1α promoter) | amount of PGC-1α protein (immunoblot) [1] | PARIS-induced suppression of expression of NRF-1 (RT-qPCR) [2] | PARIS-induced suppression of expression of PGC-1α (RT-qPCR) [2] | PARIS-induced suppression of expression of Tfam (RT-qPCR) [2] | symptoms of behavioral abnormality (time to come down from the top of the pole) [3] | passage through the BBB [4] | protein level of PGC-1α in the SN (immunoblot) ([4]; quantified with β-actin) | death of dopamine neurons (TH immunohistochemistry) [5] | death of dopamine neurons (TH immunoblot in substantia nigra) ([5]; quantified with β-actin) |
| --- | --- | --- | --- | --- | --- | --- | --- | --- | --- | --- |
| CC(CO)c1ccc(N2Cc3ccccc3C2=O)cc1 (stereo not drawn) [YPD-01, 2-(4-(1-hydroxypropan-2-yl)phenyl) isoindoline-1-one] | highest | increased the amount of PGC-1α protein regardless of the concentration | significantly recovered | significantly recovered | significantly recovered | disappeared | successfully passed through BBB | increased the protein level of PGC-1α | the death of dopamine neurons was meaningfully inhibited | the death of dopamine neurons by AAV-PARIS was inhibited |
| CC(C(=O)O)c1ccc(N2Cc3ccccc3C2=O)cc1 (stereo not drawn) [YPD-02, 2-[4-(3-oxo-1H-isoindol-2-yl)phenyl]propanoic acid, reference compound] |  | increased the amount of PGC-1α protein in accordance with an increase in the drug concentration |  |  |  |  |  |  |  |  |
| CC(C)OC(=O)C(C)c1ccc(N2Cc3ccccc3C2=O)cc1 (stereo not drawn) [YPD-03, isopropyl 2-(4-(1-oxoisoindolin-2-yl)phenyl) propanoate] |  | increased the amount of PGC-1α protein in accordance with an increase in the drug concentration |  |  |  |  |  |  |  |  |

— patent US12564574B2, “Pharmaceutical composition for preventing or treating parkinson's disease, comprising 2-(4-(1-hydroxypropane-2-yl)phenyl)isoindoline-1-one compound” (YEP BIO CO. LTD., priority 2020, dated 2026)
